This is an account of results in patent US20250084079A1, “COMPOSITIONS AND METHODS FOR INHIBITION OF RAS” (TheRas, Inc., priority 2022, published 2025).

In experiment [1] the target is T1, Avi-KRAS G12D (1-169) GppNHp/RAF1 RBD-3xFLAG (52-151) (Homo sapiens, UniProt P01116, G12D).
T1 construct: 100 nM Avi-KRAS G12D (1-169) GppNHp
Kind of experiment: RAS-effector PPI HTRF disruption assay, Raf1-GppNHp-KRAS G12D. It is filed as biochemical. On the procedure: (§1) A protein:protein interaction (PPI) Homogeneous Time Resolved Fluorescence (HTRF) assay was used to determine the effectiveness of compounds of the present disclosure in disrupting KRAS protein and effector (RAF1 or PIK3 CA) binding.
(§2) The HTRF assay used the following reagents and proteins: (i) 375 nM Avi-KRAS G12D/Q25A (1-169) GppNHp/3×FLAG-PI3KCA (157-299); (ii) 100 nM Avi-KRAS G12D (1-169) GppNHp/RAF1 RBD-3×FLAG (52-151); (iii) 50 nM Avi-KRAS G12V (1-169) GppNHp/RAF1 RBD-3×FLAG (52-151); (iv) 50 nM Avi-KRAS WT (1-169) GppNHp/RAF1 RBD-3×FLAG (52-151); and (v) 35 nM Avi-PI3K RBD CA-3×FLAG; Assay Buffer: 50 mM Tris pH 7.5, 100 mM NaCl, 5 mM MgCl2, 0.1% BSA, 0.01% Tween, 1 mM TCEP, 10% DMSO; Bead Buffer: 50 mM Tris pH 7.5, 0.01% Tween 20; Assay volume: 20 μL (384 well plate-low volume format); and Compound titration: 100-0.02 μM, 3× dilution series.
(§3) The HTRF assay employed the following protocol:
(§4) Compounds were dispensed in assay plate (384-well, Grenier Bione #784075) using Echo (model 555) with dose response settings: 200 nL final volume, titration from 100 μM as a 10-point dilution series. Protein mix was prepared in assay buffer, and dispensed on plates, 10 μL per well, then incubated for 1 h at room temperature, with 700 rpm shaking. Reagents mix was prepared and dispensed on plates, 10 μL per well, then incubated for 1 h at room temperature, with 700 rpm shaking.
(§5) Plates were analyzed on an Envision plate reader using the following setting: Excitation 320 nm, Bandwidth […]; Emission 615 nm, Bandwidth […], Gain 100%, Flashes 100, Lag 60 μs. Data was reported as percentage of activity, with DMSO as 100%. Data was plotted and analyzed using Prism 8. The SPR Kd, biochemical Raf1-KRAS G12D/G12V/WT-GppNHP and PI3KCA-KRAS G12D/Q25A-GppNHp disruption assay IC50 of selected compounds described herein are shown in Table 4.
(In TR-FRET formats the signal depends on donor and acceptor labels being close together.)

Experiment [2] addresses T2, Avi-KRAS G12V (1-169) GppNHp/RAF1 RBD-3xFLAG (52-151) (Homo sapiens, UniProt P01116, G12V).
T2 construct: 50 nM Avi-KRAS G12V (1-169) GppNHp
Kind of experiment: RAS-effector PPI HTRF disruption assay, Raf1-GppNHp-KRAS G12V. It is filed as biochemical. How it is done:
as §1, §2, §3, §4, §5

Experiment [3] addresses T3, Avi-KRAS WT (1-169) GppNHp/RAF1 RBD-3xFLAG (52-151) (Homo sapiens, UniProt P01116).
T3 construct: 50 nM Avi-KRAS WT (1-169) GppNHp
Kind of experiment: RAS-effector PPI HTRF disruption assay, Raf1-GppNHp-KRAS WT. It is filed as biochemical. On the procedure:
as §1, §2, §3, §4, §5

Experiment [4] concerns pERK in GP2d cells (KRAS G12D). In words: Cell-based pERK HTRF assay in GP2d cell. Particulars: 60 min incubation. On the procedure:
A pERK assay (Perkin Elmer) was used to determine the effectiveness of compounds in disrupting KRAS G12D protein/effector signaling in cells.
On Day 1, cells (GP2d) were seeded into 96-well plates at 3×10^4 cells/well in 80 μL complete growth media (DMEM, 10% FBS).
On Day 2, cells were treated with compounds at 0.25% DMSO. The source plate was created with compounds diluted in media at 5-fold the final assay concentration. The compounds were run in a 9-point concentration curve starting at 1 μM, with a half-log dilution between concentrations. 20 μL was transferred onto the cell plates (final volume in wells was 100 μL). Plates were harvested after 60 min incubation by aspirating media and adding kit-supplied 1× supplemented lysis buffer to all wells (50 μL per well). Plates were then placed on a plate shaker and incubated at 850 rpm for an additional 30 min.
Antibody mixture solution is prepared by diluting aliquoted d2 and Eu Cryptate antibodies 1:20 in kit supplied detection buffer, mix the diluted antibodies solutions (1:1 v:v). 4 μL of this solution is then added to a 384-well detection plate (Perkin Elmer; 6008230).
Samples were homogenized by pipetting up and down and then transferred (16 μL of cell lysates) from the 96-well cell culture plate to two wells of the HTRF 384-well detection plate containing the antibody solution. Plates were centrifuged (524 g for 1 min) and allowed to incubate between 4 and 24 h at room temperature. Maximum signal is reached after 4 h incubation time and remains stable over a period of 24 hours. Therefore, readings can be made between 4 and 24 h of incubation. Plates were centrifuged again (524 g for Imin), then analyzed on the EnVision plate reader using the following settings: Excitation 320 nm, Bandwidth 75 nm; Emission 615 nm, Bandwidth 85 nm; Gain 100%; Flashes 100; Lag 60 μs.

Where two headings read alike, the source gives them in different places.

T1 sequence (P01116 1-169 isoform P01116-2 G12D): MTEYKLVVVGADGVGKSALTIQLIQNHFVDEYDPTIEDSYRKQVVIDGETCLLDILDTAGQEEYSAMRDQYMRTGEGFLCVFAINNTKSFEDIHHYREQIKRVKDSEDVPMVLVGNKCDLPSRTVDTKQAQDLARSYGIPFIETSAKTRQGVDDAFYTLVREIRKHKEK
T2 sequence (P01116 1-169 isoform P01116-2 G12V): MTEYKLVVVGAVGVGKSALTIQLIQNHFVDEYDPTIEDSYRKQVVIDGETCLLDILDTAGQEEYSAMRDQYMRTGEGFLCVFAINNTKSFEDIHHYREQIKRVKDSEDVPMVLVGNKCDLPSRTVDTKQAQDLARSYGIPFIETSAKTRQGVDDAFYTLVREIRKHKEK
T3 sequence (P01116 1-169 isoform P01116-2): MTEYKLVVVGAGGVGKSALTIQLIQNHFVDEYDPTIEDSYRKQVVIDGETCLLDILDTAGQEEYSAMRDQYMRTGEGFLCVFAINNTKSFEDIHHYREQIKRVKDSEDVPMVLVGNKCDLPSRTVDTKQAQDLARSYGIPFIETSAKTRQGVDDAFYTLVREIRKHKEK

With `N#Cc1c(N)sc2c(F)ccc(-c3c(C(F)(F)F)cc4c(O[C@H]5CCC6(CNC6)C5)nc(OC[C@@]56CCCN5C[C@H](F)C6)nc4c3F)c12` (atropisomer, axis not shown) [Compound 78], the IC50 in experiment [1] was 1000 to 10000 nM; in experiment [2] it was over 10000 nM; in experiment [3] it was 1000 to 10000 nM; in experiment [4] (read-out: pERK-Gp2D-1 hr) it was over 1000 nM.
In the case of `N#Cc1c(N)sc2c(F)ccc(-c3c(C(F)(F)F)cc4c(O[C@H]5CCC6(CNC6)C5)nc(OC[C@@]56CCCN5C[C@H](F)C6)nc4c3F)c12` (atropisomer, axis not shown) [Compound 79], the IC50 in experiment [1], in experiment [2], in experiment [3] and in experiment [4] (read-out: pERK-Gp2D-1 hr) was at most 100 nM throughout.
Consider `COC[C@H]1C[C@@H](Oc2nc(OC[C@@]34CCCN3C[C@H](F)C4)nc3c(F)c(-c4ccc(F)c5sc(N)c(C#N)c45)c(C(F)(F)F)cc23)CN1` (atropisomer, axis not shown) [Compound 80], for which the IC50 was at most 100 nM in experiment [1], 100 to 1000 nM in experiment [2], 100 to 1000 nM in experiment [3] and at most 100 nM in experiment [4] (read-out: pERK-Gp2D-1 hr).
As to `COC[C@H]1C[C@@H](Oc2nc(OC[C@@]34CCCN3C[C@H](F)C4)nc3c(F)c(-c4ccc(F)c5sc(N)c(C#N)c45)c(C(F)(F)F)cc23)CN1` (atropisomer, axis not shown) [Compound 81], the IC50 in experiment [1] is over 10000 nM; in experiment [2], over 10000 nM; in experiment [3], over 10000 nM; in experiment [4] (read-out: pERK-Gp2D-1 hr) it was over 1000 nM.
Regarding `COC[C@@H]1C[C@@H](Oc2nc(OC[C@@]34CCCN3C[C@H](F)C4)nc3c(F)c(-c4ccc(F)c5sc(N)c(C#N)c45)c(C(F)(F)F)cc23)CN1` (atropisomer, axis not shown) [Compound 84], the IC50 was at most 100 nM in experiment [1]; 100 to 1000 nM in experiment [2]; 100 to 1000 nM in experiment [3]; at most 100 nM in experiment [4] (GP2d, 1 h).
For the compound `N#Cc1c(N)sc2c(F)ccc(-c3c(C(F)(F)F)cc4c(O[C@@H]5CCC6(CNC6)C5)nc(OC[C@@]56CCCN5C[C@H](F)C6)nc4c3F)c12` (atropisomer, axis not shown) [Compound 85], the IC50 in experiment [1] is at most 100 nM; in experiment [2], 100 to 1000 nM; in experiment [3], at most 100 nM; in experiment [4] (GP2d, 1 h) it was 100 to 1000 nM.
The compound `C[C@H]1CNCC1Oc1nc(OC[C@@]23CCCN2C[C@H](F)C3)nc2c(F)c(-c3ccc(F)c4sc(N)nc34)c(C(F)(F)F)cc12` (some centres unmarked) [Compound 1] yielded an IC50 in experiment [1] of 1000 to 10000 nM.
`CN1CCC[C@H]1COc1nc(OC2CNC2)c2cc(Cl)c(-c3ccc(F)c4sc(N)nc34)c(F)c2n1` [Compound 3] gave an IC50 in experiment [1] of over 10000 nM.
Compound `Nc1nc2c(-c3c(C(F)(F)F)cc4c(O[C@@H]5CCNC5)nc(OCC56CCCN5C[C@H](F)C6)nc4c3F)ccc(F)c2s1` (some centres unmarked) [Compound 4] displayed an IC50 in experiment [4] (GP2d, 1 h) of at most 100 nM.
In the case of `N#Cc1c(N)sc2c(F)ccc(-c3c(C(F)(F)F)cc4c(OC5CCC6(CC5)CNC6)nc(OC[C@@]56CCCN5C[C@H](F)C6)nc4c3F)c12` [Compound 40], the IC50 was at most 100 nM in experiment [1]; 100 to 1000 nM in experiment [2]; at most 100 nM in experiment [3]; 100 to 1000 nM in experiment [4] (GP2d, 1 h).
As to `N#Cc1c(N)sc2c(F)ccc(-c3c(C(F)(F)F)cc4c(OC5CC6(CNC6)C5)nc(OC[C@@]56CCCN5C[C@H](F)C6)nc4c3F)c12` [Compound 43], the IC50 was 100 to 1000 nM in experiment [1]; 100 to 1000 nM in experiment [2]; 100 to 1000 nM in experiment [3]; 100 to 1000 nM in experiment [4] (GP2d, 1 h).
Turning to `Nc1nc2c(-c3ccc4c(O[C@H]5CNC[C@H]5F)nc(OC[C@@]56CCCN5C[C@H](F)C6)nc4c3F)ccc(F)c2s1` [Compound 82], the IC50 is over 10000 nM in experiment [1]; over 10000 nM in experiment [2]; over 10000 nM in experiment [3]; over 1000 nM in experiment [4] (GP2d, 1 h).
In the case of `C[C@H]1NCC[C@H]1Oc1nc(OC[C@@]23CCCN2C[C@H](F)C3)nc2c(F)c(-c3ccc(F)c4sc(N)nc34)ccc12` [Compound 83], the IC50 is over 10000 nM in experiment [1]; over 10000 nM in experiment [2]; over 10000 nM in experiment [3]; over 1000 nM in experiment [4] (GP2d, 1 h).
Turning to `COC[C@H]1NCC[C@H]1Oc1nc(OC[C@@]23CCCN2C[C@H](F)C3)nc2c(F)c(-c3ccc(F)c4sc(N)c(C#N)c34)c(C(F)(F)F)cc12` [Compound 90], the IC50 in experiment [1] was 100 to 1000 nM; in experiment [2], 1000 to 10000 nM; in experiment [3] it was 100 to 1000 nM; in experiment [4] (GP2d, 1 h) it was at most 100 nM.
Take `COC[C@H]1NCC[C@H]1Oc1nc(OC[C@@]23CCCN2C[C@H](F)C3)nc2c(F)c(-c3ccc(F)c4sc(N)c(C#N)c34)ccc12` [Compound 91]: the IC50 in experiment [1] was over 10000 nM; in experiment [2], over 10000 nM; in experiment [3], over 10000 nM; in experiment [4] (GP2d, 1 h), 100 to 1000 nM.
As to `N#Cc1c(-c2ccc(F)c3sc(N)c(C#N)c23)c(Cl)cc2c(O[C@H]3CNC[C@H]3F)nc(OC[C@@]34CCCN3C[C@H](F)C4)nc12` [Compound 92], the IC50 was 1000 to 10000 nM in experiment [1]; over 10000 nM in experiment [2]; 1000 to 10000 nM in experiment [3]; 100 to 1000 nM in experiment [4] (GP2d, 1 h).
With `N#Cc1c(N)sc2c(F)ccc(-c3cc4nc(OC[C@@]56CCCN5C[C@H](F)C6)nc(O[C@@H]5CCNC5)c4nc3C(F)(F)F)c12` [Compound 93, 2-amino-7-fluoro-4-(2-(((2R,7aS)-2-fluorotetrahydro-1H-pyrrolizin-7a(5H)-yl)methoxy)-4-(((R)-pyrrolidin-3-yl)oxy)-6-(trifluoromethyl)pyrido[3,2-d]pyrimidin-7-yl)benzo[b]thiophene-3-carbonitrile], the IC50 in experiment [1] was 1000 to 10000 nM; in experiment [2], 1000 to 10000 nM; in experiment [3], 1000 to 10000 nM; in experiment [4] (GP2d, 1 h), at most 100 nM.
Turning to `C[C@@H]1C[C@@H](Oc2nc(OC[C@@]34CCCN3C[C@H](F)C4)nc3cc(-c4ccc(F)c5sc(N)c(C#N)c45)c(C(F)(F)F)nc23)CN1` [Compound 94], the IC50 was 1000 to 10000 nM in experiment [1]; 1000 to 10000 nM in experiment [2]; 1000 to 10000 nM in experiment [3]; at most 100 nM in experiment [4] (GP2d, 1 h).
Consider `C[C@@H]1C[C@@H](Oc2nc(OC[C@@]34CCCN3C[C@H](F)C4)nc3cc(-c4ccc(F)c5sc(N)c(C#N)c45)c(C(F)(F)F)nc23)CN1` [Compound 95], for which the IC50 in experiment [1] was over 10000 nM; in experiment [2], over 10000 nM; in experiment [3], over 10000 nM; in experiment [4] (read-out: pERK-Gp2D-1 hr), 100 to 1000 nM.
On to `C[C@H]1NCC[C@H]1Oc1nc(OC[C@@]23CCCN2C[C@H](F)C3)nc2cc(-c3ccc(F)c4sc(N)c(C#N)c34)c(C(F)(F)F)nc12` [Compound 96], for which the IC50 in experiment [1] is 100 to 1000 nM; in experiment [2], 1000 to 10000 nM; in experiment [3] it was 100 to 1000 nM; in experiment [4] (GP2d, 1 h), at most 100 nM.
